In paper PMC7345905, “Microbial Metabolite Urolithin B Inhibits Recombinant Human Monoamine Oxidase A Enzyme” (Metabolites, 2020):
“And” between values parts separate entries of the source, which are not always exact repeats. Equal values may be shown once.

Tests used:
human recombinant MAO-B = molecular target: T1, human recombinant MAO-B (Homo sapiens, UniProt P27338); assay: MAO-Glo MAO-B inhibition assay; type: biochemical; conditions: N=1-3, listed as UroB
T1 construct: purchased Sigma-Aldrich
T1 sequence (P27338 1-520): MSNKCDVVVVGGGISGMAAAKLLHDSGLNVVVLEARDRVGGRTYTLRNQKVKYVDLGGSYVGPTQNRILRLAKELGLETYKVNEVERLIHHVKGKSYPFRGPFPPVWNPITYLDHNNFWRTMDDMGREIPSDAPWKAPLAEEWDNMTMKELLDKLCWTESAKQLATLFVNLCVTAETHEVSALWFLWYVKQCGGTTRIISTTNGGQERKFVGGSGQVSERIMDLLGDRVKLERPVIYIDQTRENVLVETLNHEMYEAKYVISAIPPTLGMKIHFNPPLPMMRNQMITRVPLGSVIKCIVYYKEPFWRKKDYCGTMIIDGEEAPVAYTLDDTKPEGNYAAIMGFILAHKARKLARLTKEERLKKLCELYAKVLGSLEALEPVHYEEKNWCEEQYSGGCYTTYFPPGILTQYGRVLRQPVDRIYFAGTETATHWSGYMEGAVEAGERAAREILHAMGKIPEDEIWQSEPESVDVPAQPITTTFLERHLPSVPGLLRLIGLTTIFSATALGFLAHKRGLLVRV
Method: (§1) MAO inhibition assays were performed using a MAO-Glo™ Assay kit (Promega) according to the manufacturer’s instructions. Briefly, 1 µg of human recombinant MAO-A and MAO-B enzyme isoforms were incubated with 160 and 16 µM of MAO substrates, respectively. […] The enzyme reaction was quenched by the addition of a luciferin detection reagent. […] An equal volume of dimethyl sulfoxide (0.1%) was added to the enzyme assay as a control. After 1 h of incubation, the luminescence was measured with a multimode microplate reader (Synergy HT, BioTek, Winooski, VT, USA) to determine the MAO enzyme activities. Initially, the inhibition potential of all the test compounds was evaluated at a concentration of 100 μM. The control reaction (with no inhibitor) with vehicle (DMSO 0.1%) was set at 100% activity. To determine IC50 of the test compounds, the dose dependent enzyme assays were performed. We used range of 0.1 to 50 μM concentrations for MAO-A and 0.1 to 200 μM concentrations of test compounds for the MAO-B enzyme activities. The type of enzyme inhibition was determined using variable concentrations of MAO-A substrate (10–360 µM) and MAO-B substrate (2–64 µM) for the respective enzyme assay. […] A Lineweaver–Burk double reciprocal plot was generated, and the mode of inhibition was determined by visual examination of the plot. The slope of the reciprocal plots was plotted against the inhibitor concentrations and determined the x-axis intercept that represented the inhibitor constant, Ki value.

human recombinant MAO-A = molecular target: T2, human recombinant MAO-A (Homo sapiens, UniProt P21397); assay: MAO-A inhibition kinetics (variable substrate, Lineweaver–Burk plot); type: biochemical; design: Michaelis-Menten best-fit Vmax of MAO-A / Michaelis-Menten best-fit Vmax of MAO-A, Average: unit not given here; conditions: for MAO-A assay signal (luminescence) / Transformed (reciprocal of MAO-A assay signal) / Michaelis-Menten best-fit Vmax of MAO-A: N=1-3
T2 construct: purchased Sigma-Aldrich
T2 sequence (P21397 1-527): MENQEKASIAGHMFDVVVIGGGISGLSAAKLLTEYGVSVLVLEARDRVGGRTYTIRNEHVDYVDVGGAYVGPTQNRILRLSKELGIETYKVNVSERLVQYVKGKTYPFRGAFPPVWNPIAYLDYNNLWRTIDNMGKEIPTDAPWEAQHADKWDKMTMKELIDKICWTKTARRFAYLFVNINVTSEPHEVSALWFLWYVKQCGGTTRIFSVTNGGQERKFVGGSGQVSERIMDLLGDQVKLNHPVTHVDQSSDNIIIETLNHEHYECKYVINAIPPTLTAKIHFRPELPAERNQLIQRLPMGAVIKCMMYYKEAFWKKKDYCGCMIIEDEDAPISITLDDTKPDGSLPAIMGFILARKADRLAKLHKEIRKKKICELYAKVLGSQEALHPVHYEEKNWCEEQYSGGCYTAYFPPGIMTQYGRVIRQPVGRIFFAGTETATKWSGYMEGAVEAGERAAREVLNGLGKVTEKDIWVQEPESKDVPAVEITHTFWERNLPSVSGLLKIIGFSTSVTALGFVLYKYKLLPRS
Method: as §1
All experiments were performed in triplicates and data are presented as mean ± standard error of the mean (SEM). The raw data are provided in Supplementary Data, Table S1. Enzyme kinetic data were analyzed using the Lineweaver–Burk plot. Statistical analysis was performed by Student’s t-test using GraphPad Prism Ver. 7.0 (GraphPad Prism Software Inc., San Diego, CA, USA).

[1] = UroB 0.4 µM, MAO-A substrate 10 uM
[2] = UroB 0.4 µM, MAO-A substrate 20 uM
[3] = UroB 0.4 µM, MAO-A substrate 40 uM
[4] = UroB 0.4 µM, MAO-A substrate 80 uM
[5] = UroB 0.4 µM, MAO-A substrate 160 uM
[6] = UroB 0.4 µM, MAO-A substrate 320 uM
[7] = UroB 2 µM, MAO-A substrate 10 uM
[8] = UroB 2 µM, MAO-A substrate 20 uM
[9] = UroB 2 µM, MAO-A substrate 40 uM
[10] = UroB 2 µM, MAO-A substrate 80 uM
[11] = UroB 2 µM, MAO-A substrate 160 uM
[12] = UroB 2 µM, MAO-A substrate 320 uM

Compound: O=c1oc2cc(O)ccc2c2ccccc12 [UB, urolithin-B]
- MAO-B enzyme assay, Percent of control (human recombinant MAO-B; 0.1 µM): 107.968% of control and 101.629% of control and 95.3271% of control
- MAO-B enzyme assay, Percent of control (human recombinant MAO-B; 1 µM): 109.561% of control and 99.5806% of control and 93.6856% of control
- MAO-B enzyme assay, Percent of control (human recombinant MAO-B; 10 µM): 97.6995% of control and 92.8109% of control and 92.0441% of control
- MAO-B enzyme assay, Percent of control (human recombinant MAO-B; 25 µM): 95.5787% of control and 94.7999% of control and 85.3343% of control
- MAO-B enzyme assay, Percent of control (human recombinant MAO-B; 50 µM): 93.9851% of control and 85.8855% of control and 84.5675% of control
- MAO-B enzyme assay, Percent of control (human recombinant MAO-B; 100 µM (Figure 1C), 100 µM): 92.2554% of control and 86.0762% of control and 81.4109% of control
- MAO-B enzyme assay, Percent of control (human recombinant MAO-B; 100 µM): 74.6465% of control and 81.8955% of control and 81.8476% of control
- MAO-B enzyme assay, Percent of control (human recombinant MAO-B; 200 µM): 35.5859% of control and 42.116% of control and 26.5397% of control
- mode of inhibition of MAO-A (human recombinant MAO-A; Lineweaver–Burk plot): mixed mode of inhibition
- MAO-A assay signal (luminescence), Average (human recombinant MAO-A; [1]): 1545
- MAO-A assay signal (luminescence) (human recombinant MAO-A; [1]): 1603 and 1392 and 1640
- MAO-A assay signal (luminescence), Average (human recombinant MAO-A; [2]): 2811.33
- MAO-A assay signal (luminescence) (human recombinant MAO-A; [2]): 2815 and 2835 and 2784
- MAO-A assay signal (luminescence), Average (human recombinant MAO-A; [3]): 5085
- MAO-A assay signal (luminescence) (human recombinant MAO-A; [3]): 5099 and 4835 and 5321
- MAO-A assay signal (luminescence), Average (human recombinant MAO-A; [4]): 9642.33
- MAO-A assay signal (luminescence) (human recombinant MAO-A; [4]): 9741 and 9698 and 9488
- MAO-A assay signal (luminescence), Average (human recombinant MAO-A; [5]): 17162.3
- MAO-A assay signal (luminescence) (human recombinant MAO-A; [5]): 17107 and 16984 and 17396
- MAO-A assay signal (luminescence), Average (human recombinant MAO-A; [6]): 26885
- MAO-A assay signal (luminescence) (human recombinant MAO-A; [6]): 27251 and 26905 and 26499
- Transformed (reciprocal of MAO-A assay signal), Average (human recombinant MAO-A; UroB 0.4 µM, [1/S] 0.003125): 3.72e-5
- Transformed (reciprocal of MAO-A assay signal) (human recombinant MAO-A; UroB 0.4 µM, [1/S] 0.003125): 3.67e-5 and 3.717e-5 and 3.774e-5
- Transformed (reciprocal of MAO-A assay signal), Average (human recombinant MAO-A; UroB 0.4 µM, [1/S] 0.00625): 5.827e-5
- Transformed (reciprocal of MAO-A assay signal) (human recombinant MAO-A; UroB 0.4 µM, [1/S] 0.00625): 5.846e-5 and 5.888e-5 and 5.748e-5
- Transformed (reciprocal of MAO-A assay signal), Average (human recombinant MAO-A; UroB 0.4 µM, [1/S] 0.0125): 0.0001037
- Transformed (reciprocal of MAO-A assay signal) (human recombinant MAO-A; UroB 0.4 µM, [1/S] 0.0125): 0.0001027 and 0.0001031 and 0.0001054
- Transformed (reciprocal of MAO-A assay signal), Average (human recombinant MAO-A; UroB 0.4 µM, [1/S] 0.025): 0.0001967
- Transformed (reciprocal of MAO-A assay signal) (human recombinant MAO-A; UroB 0.4 µM, [1/S] 0.025): 0.0001961 and 0.0002068 and 0.0001879
- Transformed (reciprocal of MAO-A assay signal), Average (human recombinant MAO-A; UroB 0.4 µM, [1/S] 0.05): 0.0003557
- Transformed (reciprocal of MAO-A assay signal) (human recombinant MAO-A; UroB 0.4 µM, [1/S] 0.05): 0.0003552 and 0.0003527 and 0.0003592
- Transformed (reciprocal of MAO-A assay signal), Average (human recombinant MAO-A; UroB 0.4 µM, [1/S] 0.1): 0.0006472
- Transformed (reciprocal of MAO-A assay signal) (human recombinant MAO-A; UroB 0.4 µM, [1/S] 0.1): 0.0006238 and 0.0007184 and 0.0006098
- MAO-A assay signal (luminescence), Average (human recombinant MAO-A; [7]): 917
- MAO-A assay signal (luminescence) (human recombinant MAO-A; [7]): 965 and 892 and 894
- MAO-A assay signal (luminescence), Average (human recombinant MAO-A; [8]): 1607
- MAO-A assay signal (luminescence) (human recombinant MAO-A; [8]): 1578 and 1604 and 1639
- MAO-A assay signal (luminescence), Average (human recombinant MAO-A; [9]): 2957.33
- MAO-A assay signal (luminescence) (human recombinant MAO-A; [9]): 3058 and 2874 and 2940
- MAO-A assay signal (luminescence), Average (human recombinant MAO-A; [10]): 5505.33
- MAO-A assay signal (luminescence) (human recombinant MAO-A; [10]): 5631 and 5490 and 5395
- MAO-A assay signal (luminescence), Average (human recombinant MAO-A; [11]): 10332.7
- MAO-A assay signal (luminescence) (human recombinant MAO-A; [11]): 10318 and 10224 and 10456
- MAO-A assay signal (luminescence), Average (human recombinant MAO-A; [12]): 17850.7
- MAO-A assay signal (luminescence) (human recombinant MAO-A; [12]): 18126 and 17343 and 18083
- Transformed (reciprocal of MAO-A assay signal), Average (human recombinant MAO-A; UroB 2 µM, [1/S] 0.003125): 5.602e-5
- Transformed (reciprocal of MAO-A assay signal) (human recombinant MAO-A; UroB 2 µM, [1/S] 0.003125): 5.517e-5 and 5.766e-5 and 5.53e-5
- Transformed (reciprocal of MAO-A assay signal), Average (human recombinant MAO-A; UroB 2 µM, [1/S] 0.00625): 9.678e-5
- Transformed (reciprocal of MAO-A assay signal) (human recombinant MAO-A; UroB 2 µM, [1/S] 0.00625): 9.6918e-5 and 9.781e-5 and 9.564e-5
- Transformed (reciprocal of MAO-A assay signal), Average (human recombinant MAO-A; UroB 2 µM, [1/S] 0.0125): 0.0001816
- Transformed (reciprocal of MAO-A assay signal) (human recombinant MAO-A; UroB 2 µM, [1/S] 0.0125): 0.0001776 and 0.0001821 and 0.0001854
- Transformed (reciprocal of MAO-A assay signal), Average (human recombinant MAO-A; UroB 2 µM, [1/S] 0.025): 0.0003381
- Transformed (reciprocal of MAO-A assay signal) (human recombinant MAO-A; UroB 2 µM, [1/S] 0.025): 0.000327 and 0.0003479 and 0.0003401
- Transformed (reciprocal of MAO-A assay signal), Average (human recombinant MAO-A; UroB 2 µM, [1/S] 0.05): 0.0006223
- Transformed (reciprocal of MAO-A assay signal) (human recombinant MAO-A; UroB 2 µM, [1/S] 0.05): 0.0006337 and 0.0006234 and 0.0006101
- Transformed (reciprocal of MAO-A assay signal), Average (human recombinant MAO-A; UroB 2 µM, [1/S] 0.1): 0.001091
- Transformed (reciprocal of MAO-A assay signal) (human recombinant MAO-A; UroB 2 µM, [1/S] 0.1): 0.001036 and 0.001121 and 0.001119
- Michaelis-Menten best-fit Vmax of MAO-A, Average (human recombinant MAO-A; in presence of UroB 0.4 uM): 65357.3
- Michaelis-Menten best-fit Vmax of MAO-A (human recombinant MAO-A; in presence of UroB 0.4 uM): 61114 and 67822 and 67136
- Michaelis-Menten best-fit Vmax of MAO-A, Average (human recombinant MAO-A; in presence of UroB 2 uM): 66008.7
- Michaelis-Menten best-fit Vmax of MAO-A (human recombinant MAO-A; in presence of UroB 2 uM): 58741 and 70969 and 68316
- Ki (human recombinant MAO-A; x-axis intercept of slopes of Lineweaver–Burk plots vs inhibitor concentration): 2.3 µM
